Data published in article PMC12520456, “Regulating Enzyme Activity via Microaggregates Mediated by Phase Separation” (Advanced Science, 2025).
Non-standard residues stand in square brackets, D forms with d. Residues, ends and D or L forms follow the SMILES beside them.

Columns and labels:
[1] = system: postoperative pancreatic fistula (POPF); test: Rat pancreatic splenic duct transection (non-lethal) POPF model; type: in vivo
Protocol: To investigate the biofunction of DPMD in preventing POPF, a slowly occurring POPF model was established in rats by transecting the peripancreatic splenic duct to induce a continuous but low leakage of pancreatic juice (Figure 3A). Following surgical modeling, DPMD, its L‐enantiomer LPMD, or normal saline (Ctrl) were topically applied on the incision site. After post operation, chymotrypsin leakage was assessed using a specific fluorescent dye. […] By monitoring ascitic and serum amylase and lipase levels over a span of 7 days following surgical modeling (Figure 3C), we were able to make inferences about the pathological score (Figure 3D) and the occurrence of POPF (Figure 3E). The noteworthy observation is that all the mock‐treated rats experienced POPF on day 3 following surgical modeling, and this phenomenon persisted until day 5 (Figure 3E). In contrast, LPMD reduced both the occurrence and severity of POPF, resulting in 33% of rats being healthy and only 67% experiencing minor POPF on day 3; furthermore, all rats fully recovered by day 5 (Figure 3E). […] Furthermore, both DPMD and LPMD treatments decreased inflammation markers including TNF‐α, IL‐6, IL‐8, IL‐33, sST2, CRP, HMGB1, MPO, PAF, PCT, PGE2, and SAA in rats’ serum (Figure 3G). […]
(§1) was performed using an Annexin V-Alexa Fluor 647/PI kit (Solarbio) according to the manufacturer’ s protocol. Briefly, adherent cells were detached with 0.25% EDTA-free trypsin, combined with floating cells from the supernatant. The pellet was washed twice with cold PBS and resuspended in 100 μL of 1× binding buffer. After adding Annexin V-647 and PI, cells were incubated for 15 min in the dark at room temperature. Samples were analyzed within 1h on a Sony MA900 flow cytometer.
(§2) 3.12 Animal fluorescence imaging
(§3) Rats were intraperitoneally injected with 1 mL of rhodamine-labeled 0.5% (w/v) DPMD. […] The fluorescence emission intensity of the organs was measured using IVIS Spectrum system (PerkinElmer). […]

[2] = Animal fluorescence imaging, tissue distribution and urine; type: in vivo, rat
Protocol: To assess the fate of DPMD in vivo, rats were administered DPMD intraperitoneally and monitored using in vivo fluorescence imaging.
Figure S14. (A) The cell viability test of NIH-3T3 or HUVEC cells co-cultured with different concentrations DPMD.
(B) The apoptosis evaluation of NIH-3T3 or HUVEC co-cultured with DPMD, DPMD & Trypsin, DPMD & Chymotrypsin by flow cytometry. (C) Tissue distribution and quantification of DPMD in […] organs measured by IVIS (n=3/point). The fluorescence signal from the organs after DPMD intraperitoneal injection (1 ml, 0.5%) at 1h, 2-day, 3-day, 4-day, 5-day, 6-day, 7-day. (D) The evaluation of distribution DMPD in urine.
(1 picture or pasted object on this page, not shown here) […]
as §1, with “After adding Annexin V-647 and PI, cells were incubated for 15 min in the dark at room temperature.” left out
as §2, §3

CC[C@@H](C)[C@@H](NC(=O)[C@@H](CCC(N)=O)NC(=O)[C@H](NC(=O)[C@@H](Cc1ccc(O)cc1)NC(=O)CNC(=O)[C@@H](CC(C)C)NC(=O)[C@H](NC(=O)[C@@H](CO)NC(=O)CNC(=O)[C@@H](C)NC(=O)[C@@H](CC(=O)O)NC(=O)[C@@H](C)NC(=O)[C@@H](CCCNC(=N)N)NC(=O)[C@@H](C)NC(=O)[C@@H](CC(=O)O)NC(=O)[C@@H](C)NC(=O)[C@@H](CCCNC(=N)N)NC(=O)[C@@H](C)NC(=O)[C@@H](CC(=O)O)NC(=O)[C@@H](C)NC(=O)[C@@H](CCCNC(=N)N)NC(=O)[C@@H](C)NC(=O)[C@@H](CC(=O)O)NC(=O)[C@@H](C)NC(=O)[C@H](N)CCCNC(=N)N)C(C)C)[C@H](C)CC)C(=O)N[C@H](CCCNC(=N)N)C(=O)O [DPMD, Ac‐(D‐RADA)4‐CONH2] (H-[dR][dA][dD][dA][dR][dA][dD][dA][dR][dA][dD][dA][dR][dA][dD][dA]G[dS][dV][dL]G[dY][dI][dQ][dI][dR]-OH; N-terminus and C-terminus assumed)
H&E staining of pancreatic tissue ([1]; Figure S10): reduced edema and inflammatory cell infiltration
chymotrypsin leakage by fluorescent dye imaging ([1]; topical application at incision site, Figure 3B): nearly complete suppression of leakage
serum inflammation markers (TNF-α, IL-6, IL-8, IL-33, sST2, CRP, HMGB1, MPO, PAF, PCT, PGE2, SAA) ([1]; within 7 days after surgery, Figure 3G): decreased
fluorescence intensity in organs (liver, kidneys, spleen) ([2]; 1 mL rhodamine-labeled 0.5% (w/v) DPMD intraperitoneally, IVIS, day 6 post-injection, n=3/point): barely detectable
fluorescence in urine samples ([2]; labeled DPMD intraperitoneally, Figure S14D): fluorescence appeared in urine samples
